Data: patent publication US7494714B2, “Surfaces that resist the adsorption of biological species” (President & Fellows of Harvard College, priority 2000, dated 2009)
Where two headings read alike, the source gives them in different places. Where a SMILES comes first, the peptide text is derived from it. [ ]: non-standard residue; d: D form. Sar = CNCC(=O)O

Columns and labels:
fibrinogen = molecular target: T1, fibrinogen (Bos taurus, UniProt P02672+P02676+P12799); experiment: SPR adsorption of fibrinogen to SAMs / grafted polymer films; assay type: binding, bovine; settings: for % ML 30 min / dR/dt on / % ML 3 min: fibrinogen; for % ML 30 min / dR/dt on / % Fib off: single-component SAMs (a) and mixed SAMs (b); for % ML 3 min: single-component SAMs (a, RSH) and mixed SAMs (b, RNH2)
T1 sequence (P02672 20-615): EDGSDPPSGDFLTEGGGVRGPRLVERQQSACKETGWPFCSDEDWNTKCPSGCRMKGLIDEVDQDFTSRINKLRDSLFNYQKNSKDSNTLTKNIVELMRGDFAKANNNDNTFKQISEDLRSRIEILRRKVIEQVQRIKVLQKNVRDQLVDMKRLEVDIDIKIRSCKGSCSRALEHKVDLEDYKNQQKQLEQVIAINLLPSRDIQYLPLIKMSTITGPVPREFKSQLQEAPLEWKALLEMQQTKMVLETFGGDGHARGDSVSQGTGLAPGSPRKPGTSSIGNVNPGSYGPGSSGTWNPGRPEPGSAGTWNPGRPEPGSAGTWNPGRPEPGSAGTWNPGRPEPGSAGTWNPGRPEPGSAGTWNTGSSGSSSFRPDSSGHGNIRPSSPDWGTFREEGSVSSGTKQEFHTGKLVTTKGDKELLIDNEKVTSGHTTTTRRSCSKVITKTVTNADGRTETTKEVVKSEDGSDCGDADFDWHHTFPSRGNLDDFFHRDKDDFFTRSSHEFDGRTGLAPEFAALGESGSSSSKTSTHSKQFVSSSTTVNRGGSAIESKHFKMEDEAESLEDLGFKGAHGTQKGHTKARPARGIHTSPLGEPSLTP
T1 sequence (P02676 1-468): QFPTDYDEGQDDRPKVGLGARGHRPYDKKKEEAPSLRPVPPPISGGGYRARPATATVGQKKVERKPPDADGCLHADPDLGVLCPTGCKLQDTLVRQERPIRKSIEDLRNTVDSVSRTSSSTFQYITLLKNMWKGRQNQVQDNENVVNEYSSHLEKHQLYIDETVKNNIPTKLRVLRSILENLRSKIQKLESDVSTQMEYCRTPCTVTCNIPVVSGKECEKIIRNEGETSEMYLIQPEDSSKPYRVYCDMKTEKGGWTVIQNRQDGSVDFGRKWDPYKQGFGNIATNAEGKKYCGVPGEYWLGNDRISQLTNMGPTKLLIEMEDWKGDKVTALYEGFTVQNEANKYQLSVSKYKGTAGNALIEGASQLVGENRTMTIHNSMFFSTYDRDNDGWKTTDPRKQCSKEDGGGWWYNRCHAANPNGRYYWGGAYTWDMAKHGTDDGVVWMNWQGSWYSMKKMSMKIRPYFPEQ
T1 sequence (P12799 25-444): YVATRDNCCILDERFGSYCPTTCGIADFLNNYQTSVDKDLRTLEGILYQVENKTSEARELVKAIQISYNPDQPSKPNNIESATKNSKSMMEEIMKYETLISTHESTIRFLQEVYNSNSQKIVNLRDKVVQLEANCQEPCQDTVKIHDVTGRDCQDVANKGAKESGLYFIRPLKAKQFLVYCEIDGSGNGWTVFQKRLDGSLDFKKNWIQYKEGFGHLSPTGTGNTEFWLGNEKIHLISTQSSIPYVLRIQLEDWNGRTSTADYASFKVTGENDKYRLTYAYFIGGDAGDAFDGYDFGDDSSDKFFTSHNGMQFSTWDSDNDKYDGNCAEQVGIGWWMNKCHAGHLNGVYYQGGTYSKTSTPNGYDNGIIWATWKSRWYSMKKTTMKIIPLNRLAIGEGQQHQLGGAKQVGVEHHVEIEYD

lysozyme = lysozyme (Gallus gallus, UniProt P00698); experiment: SPR adsorption of lysozyme to SAMs / grafted polymer films; assay type: binding; settings: for % ML 3 min / dR/dt on: lysozyme; for % ML 3 min / dR/dt on / % Lys off: single-component SAMs (a) and mixed SAMs (b)
[1] = mixed SAM —CONRR′/—CO2H, 1 mg/mL fibrinogen flowed 3 min, relative to —CONH(CH2)10CH3/—CO2H SAM
[2] = mixed SAM —CONRR′/—CO2H, 1 mg/mL fibrinogen flowed 30 min
[3] = mixed SAM —CONRR′/—CO2H, 1 mg/mL lysozyme flowed 3 min
[4] = mixed SAM —CONRR′/—CO2H, 1 mg/mL lysozyme flowed 30 min

Chain of lysozyme (P00698 19-147): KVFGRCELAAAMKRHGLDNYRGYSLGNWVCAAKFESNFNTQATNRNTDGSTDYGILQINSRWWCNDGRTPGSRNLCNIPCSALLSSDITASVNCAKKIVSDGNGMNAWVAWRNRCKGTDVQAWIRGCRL

| Molecule | % Fiboff (percent decrease in adsorbed protein during 10 minute PBS wash) (fibrinogen; mixed SAM —CONRR′/—CO2H) [%] | dR/dton fibrinogen (maximum initial rate of adsorption) (fibrinogen; mixed SAM —CONRR′/—CO2H) [RU/sec] | % MLfib 3 min (fibrinogen; [1]) [%] | % MLfib 30 min (fibrinogen; [2]) [%] | % Lysoff (percent decrease in adsorbed protein during 10 minute PBS wash) (lysozyme; mixed SAM —CONRR′/—CO2H) [%] | dR/dton lysozyme (maximum initial rate of adsorption) (lysozyme; mixed SAM —CONRR′/—CO2H) [RU/sec] | % MLlys 3 min (lysozyme; [3]) [%] | % MLlys 30 min (lysozyme; [4]) [%] | % ML 30 min (fibrinogen) [%] | dR/dt on (fibrinogen) [RU/sec] | % ML 3 min (fibrinogen) [%] | % Fib off (fibrinogen) [%] | % ML 3 min (lysozyme; footnote b (30 minutes)) [%] | % ML 3 min (lysozyme) [%] | dR/dt on (lysozyme) [RU/sec] | % Lys off (lysozyme) [%] | other results |
| --- | --- | --- | --- | --- | --- | --- | --- | --- | --- | --- | --- | --- | --- | --- | --- | --- | --- |
| OCCOCCN1CCNCC1 | 1.8 ± 0.1 | 54 ± 10 | 1.2 ± 0.1 | 3.7 ± 0.0 | 110 ± 5 | 20 ± 2 | 4.5 ± 0.0 | 27 ± 10 |  |  |  |  |  |  |  |  |  |
| CN(CCN(C)P(=O)(N(C)C)N(C)C)C(=O)CCCCCCCCCCS [Entry 1a] |  |  |  |  |  |  |  |  | 37 ±2 | 83 ±40 | 13 ±0.2 | 29 ±0.4 | 17 ±0.3 | 4.5 ±0.1 | 330 ±110 | 240 ±2 |  |
| CC(=O)N1CCN(C(=O)CCCCCCCCCCCCCCCS)CC1 [Entry 2a] |  |  |  |  |  |  |  |  | 2.2 ±0.1 | 22 ±10 | 0.7 ±0.0 | 6.8 ±5 | 0.8 ±0.2 | 0.8 ±0.3 | 100 ±10 | 110 ±0 |  |
| OCCOCCOCCOCCCCCCCCCCCS [Entry 3a, HOEG3(CH2)11SH, reference compound] |  |  |  |  |  |  |  |  | 0.2 |  | 0.2 |  | 0.2 | 0.2 |  |  |  |
| COC[C@H](OC)[C@H](OC)[C@H](OC)[C@@H](CN(C)C(=O)CCCCCCCCCCS)OC [Entry 4a] |  |  |  |  |  |  |  |  | 0.7 ±0.1 | 30 ±14 | 0.2 ±0.1 | 66 ±5 | 0.5 ±0.2 | 0.5 ±0.0 | 29 ±20 | 7 ±0 |  |
| CN(C)C(=O)CNC(=O)CNC(=O)CN [H2N(Gly)3N(CH3)2] (H-Gly-Gly-Gly-NMe2) | 21 ± 0.7 | 55 ± 40 | 8 ± 1 | 22 ± 0.4 | 630 ± 4 | 620 ± 130 | 2.1 ± 1.5 | 8.8 ± 0.5 |  |  |  |  |  |  |  |  |  |
| CNCC(=O)N(C)CC(=O)N(C)CC(=O)N(C)C [H(CH3)N(Sar)3N(CH3)2] (H-[Sar]-[Sar]-[Sar]-NMe2) |  | 60 ± 10 | 0.7 ± 0.1 | 2.0 ± 0.1 |  | 70 ± 30 | 0.6 ± 0.1 | 1.1 ± 0.3 | 2.0 | 60 | 0.7 |  | 1.1 | 0.6 | 70 |  |  |
| CNCC(=O)N(C)CC(=O)N(C)CC(=O)N(C)CC(=O)N(C)C [H(CH3)N(Sar)4N(CH3)2] (H-[Sar][Sar][Sar][Sar]-NMe2) |  | 70 ± 20 | 0.5 ± 0.0 | 1.7 ± 0.2 | 70 ± 30 | 80 ± 40 | 0.8 ± 0.1 | 1.5 ± 0.7 |  |  |  |  |  |  |  |  |  |
| CNCC(=O)N(C)CC(=O)N(C)CC(=O)N(C)CC(=O)N(C)CC(=O)N(C)C [H(CH3)N(Sar)5N(CH3)2] |  | 50 ± 10 | 0.6 ± 0.3 | 1.3 ± 0.1 | 14 ± 4 | 50 ± 20 | 0.8 ± 0.7 | 1.0 ± 0.2 |  |  |  |  |  |  |  |  |  |
| N#CCCNCCC#N [HN(CH2CH2CN)2] | 20 ± 0.7 | 590 ± 240 | 43 ± 1.0 | 58 ± 1.6 | 290 ± 8 | 2700 ± 160 | 17 ± 1.0 | 40 ± 2.0 |  |  |  |  |  |  |  |  |  |
| N#CCNCC#N [HN(CH2CN)2] | 7.9 ± 0.9 | 2200 ± 500 | 54 ± 3.8 | 73 ± 3 | 110 ± 1 | 2200 ± 500 | 36 ± 0.5 | 92 ± 0.3 |  |  |  |  |  |  |  |  |  |
| CNC [HN(CH3)2] |  |  |  |  |  |  |  |  |  |  |  |  |  |  |  |  | % Fiboff (percent decrease in adsorbed protein during 10 minute PBS wash) (fibrinogen): 24 ± 0.1%; % MLfib 3 min (fibrinogen): 26 ± 6%; % MLfib 30 min (fibrinogen): 54 ± 0.8%; dR/dton fibrinogen (maximum initial rate of adsorption) (fibrinogen): 160 ± 30 RU/sec; % Lysoff (percent decrease in adsorbed protein during 10 minute PBS wash) (lysozyme): 120 ± 1%; % MLlys 3 min (lysozyme): 43 ± 16%; % MLlys 30 min (lysozyme): 80 ± 3%; dR/dton lysozyme (maximum initial rate of adsorption) (lysozyme): 2400 ± 260 RU/sec |
| (CH3)2N(Sar)3-NHCO(CH2)15SH [Entry 5a] |  |  |  |  |  |  |  |  | 2.0 | 24 | 0.7 | 5.7 | 2.0 | 1.8 | 33 | 18 |  |
